This is an account of results in patent publication US8470855B2, “Dual-use peptidase inhibitors as prodrugs for a therapy of inflammatory and other diseases” (IMTM GmbH, priority 2005, dated 2013).

Assay [1] has as its target T1, APN (Leucin aminopeptidase, microsomal, EC 3.4.11.2) (Sus scrofa, UniProt P15145).
T1 construct: purchased Sigma; host or cells: pig kidney (tissue-derived)
T1 sequence (P15145 1-963): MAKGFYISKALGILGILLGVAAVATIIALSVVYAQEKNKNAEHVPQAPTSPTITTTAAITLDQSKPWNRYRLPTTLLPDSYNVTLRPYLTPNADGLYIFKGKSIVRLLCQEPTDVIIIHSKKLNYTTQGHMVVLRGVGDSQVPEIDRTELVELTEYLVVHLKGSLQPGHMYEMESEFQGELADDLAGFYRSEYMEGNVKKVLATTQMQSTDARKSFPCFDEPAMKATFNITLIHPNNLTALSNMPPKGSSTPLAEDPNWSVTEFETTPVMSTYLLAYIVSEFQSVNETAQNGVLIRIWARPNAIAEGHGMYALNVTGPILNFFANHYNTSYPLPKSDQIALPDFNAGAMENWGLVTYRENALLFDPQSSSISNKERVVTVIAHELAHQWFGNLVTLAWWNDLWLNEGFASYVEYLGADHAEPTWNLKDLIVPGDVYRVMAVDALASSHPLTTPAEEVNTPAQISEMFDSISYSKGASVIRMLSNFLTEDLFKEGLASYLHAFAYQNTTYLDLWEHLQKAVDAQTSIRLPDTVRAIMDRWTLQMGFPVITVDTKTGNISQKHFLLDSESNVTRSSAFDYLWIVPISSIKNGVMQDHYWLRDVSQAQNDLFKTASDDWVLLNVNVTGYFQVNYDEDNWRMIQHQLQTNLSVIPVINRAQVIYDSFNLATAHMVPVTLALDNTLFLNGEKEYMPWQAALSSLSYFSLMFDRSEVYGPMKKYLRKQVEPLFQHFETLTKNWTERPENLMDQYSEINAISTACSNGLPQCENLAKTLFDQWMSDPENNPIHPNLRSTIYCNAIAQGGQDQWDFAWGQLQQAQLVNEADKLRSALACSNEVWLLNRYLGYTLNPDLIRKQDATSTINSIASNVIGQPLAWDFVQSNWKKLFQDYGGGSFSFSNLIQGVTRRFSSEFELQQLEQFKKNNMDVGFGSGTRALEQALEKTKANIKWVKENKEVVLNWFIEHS
The assay can be described thus: IC50 determination against APN after reduction of the prodrugs with DTT. The note with it: after release (reduction with DTT) of the inhibitors from the prodrugs; pig kidney enzyme, substrate Leu-AMC, pH 7.2, 30° C.; read-out: APN (IC 50 [M]). The assay is classed as biochemical. The method, then: (§1) Process of the Reduction with DTT:
(§2) Same volumes of the 7·10^−2 M solution of the inhibitor in water or DMF and a 0.35 M aqueous DTT-solution (5 equivalents) were agitated 4 hours at RT.
(§3) Subsequently to the reductive treatment of the prodrugs the IC50-values were estimated using the following process:
(§4) Determination of the IC50-Values after Reduction:
Leucin aminopeptidase, microsomal, from pig kidney (EC 3.4.11.2).
Suspension in 3.5 M (NH4)2SO4-solution (Sigma).
Substrate: Leu-AMC, [S]=1.5·10^−4 M (2 Km) in the reaction batch.
Buffer: 40 mM Tris/HCl-buffer, pH 7.2 in the reaction batch. […]
60 μl of these inhibitor solutions each or water (standard), were incubated with 80 μl of the according diluted enzymes in buffer for 15 minutes at 30° C. and subsequently 60 μl of the according AMC-substrate in water (total volume 200 μl) were added. The release of the 7-Amino-4-methyl-cumarin was traced continuously over a period of 20 minutes at 30° C. using a fluorence-pladt-reader NOVOstar (BMG Labtechnologies). The enzyme concentration was chosen to give a linear increase of the fluorescence during the measuring period.
The excitation- and emission-wavelengths, respectively, were 390 and 460 nm. […] The turn-over rates (increase of fluorescence/minutes) were plotted against the concentration of the inhibitor and the IC50-values were calculated using the computer program GraFit. […]

The target in assay [2] is T2, Dipeptidyl peptidase IV (EC 3.4.14.5.) (Sus scrofa, UniProt P22411).
T2 construct: purchased Sigma; host or cells: pig kidney (tissue-derived)
The assay can be described thus: IC50 determination against DP IV after reduction of the prodrugs with DTT. The assay is classed as biochemical. The note with it: after release (reduction with DTT) of the inhibitors from the prodrugs; pig kidney enzyme, substrate Ala-Pro-AMC, pH 7.6, 30° C.; read-out: DP IV (IC 50 [M]). On the procedure: as §1, §2, §3, §4
Dipeptidyl peptidase IV from pig kidney (EC 3.4.14.5.), lyophilisated powder (Sigma).
Substrate: Ala-Pro-AMC, [S]=3·10^−5 M (2 Km) in the reaction batch.
Buffer: 40 mM Tris/HCl-buffer, pH 7.6, I=0.125 in the reaction batch.
By dilution with water 10 to 12 solutions with defined inhibitor concentration were prepared from the reduction batch. These were selected from a relevant concentration range, i.e. between complete inhibition and non-influenced enzyme activity.
60 μl of these inhibitor solutions each or water (standard), were incubated with 80 μl of the according diluted enzymes in buffer for 15 minutes at 30° C. and subsequently 60 μl of the according AMC-substrate in water (total volume 200 μl) were added. The release of the 7-Amino-4-methyl-cumarin was traced continuously over a period of 20 minutes at 30° C. using a fluorence-pladt-reader NOVOstar (BMG Labtechnologies). The enzyme concentration was chosen to give a linear increase of the fluorescence during the measuring period. […]

T2 sequence (P22411 whole entry): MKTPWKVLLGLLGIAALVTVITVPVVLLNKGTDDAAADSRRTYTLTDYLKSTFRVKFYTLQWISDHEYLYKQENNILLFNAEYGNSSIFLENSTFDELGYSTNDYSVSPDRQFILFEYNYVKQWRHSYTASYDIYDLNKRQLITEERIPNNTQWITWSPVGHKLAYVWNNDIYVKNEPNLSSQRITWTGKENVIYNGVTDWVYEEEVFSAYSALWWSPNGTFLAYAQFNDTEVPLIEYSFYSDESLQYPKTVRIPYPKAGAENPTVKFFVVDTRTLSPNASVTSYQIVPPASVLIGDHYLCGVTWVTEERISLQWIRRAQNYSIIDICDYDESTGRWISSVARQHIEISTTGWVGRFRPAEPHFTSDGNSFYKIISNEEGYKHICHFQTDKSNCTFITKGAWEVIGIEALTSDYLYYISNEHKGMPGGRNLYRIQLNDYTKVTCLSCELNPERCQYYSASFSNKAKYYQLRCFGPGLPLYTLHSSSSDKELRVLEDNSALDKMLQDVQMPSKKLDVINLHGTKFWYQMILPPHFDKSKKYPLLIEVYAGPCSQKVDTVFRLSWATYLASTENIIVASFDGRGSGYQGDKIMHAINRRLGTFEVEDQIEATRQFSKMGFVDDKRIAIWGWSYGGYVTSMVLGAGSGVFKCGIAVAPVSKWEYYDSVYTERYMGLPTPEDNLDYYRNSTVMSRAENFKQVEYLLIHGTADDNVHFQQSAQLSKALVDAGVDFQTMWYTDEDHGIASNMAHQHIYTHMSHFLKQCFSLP

`CCCCC[C@H](CC(=O)NO)C(=O)N[C@H](C(=O)N1CCC[C@H]1CO)C(C)C` [Actinonine, actinonine]: the IC50 in assay [1] is 3.02e-07 M.

As to `NC(CCCCNC(=O)OCc1ccc([N+](=O)[O-])cc1)C(=O)N1CCSC1` (centres unmarked) [Lys[Z(NO2)]-thiazolidide, H-Lys[Z(NO2)]-thiazolidide], in assay [2], the IC50 is 4.34e-07 M.
